Experimental data as given in PubChem BioAssay (NCI).
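Five compound concentrations were applied to cells in 96-well plates for 48 hours; endpoints were derived by simple linear interpolation of the resulting dose-response curve. GI50 is the concentration that inhibits growth by half. At the TGI there is no net growth.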

Tested on: MDA-MB-468 breast
Assay: NCI-60 cell line screen, 48 h

**Q.** Which results are given for `NC1=NC(c2ccccc2)N=C(Nc2ccccc2)N1` (stereo not given)?
**A.** GI50: 44.4 µM; TGI: > 100 µM

**Q.** `O=C1C(Cl)=C(Nc2ccc3cn[nH]c3c2)C(=O)c2ccccc21` was tested. Which GI50 did it give?
**A.** 1.14 µM

**Q.** What about the TGI of the same molecule?
**A.** 2.4 µM

**Q.** Which GI50 does the source give for `O=C(Oc1ccc([N+](=O)[O-])cc1)N1CCN(Cc2cccc(Oc3ccccc3)c2)CC1` here?
**A.** 19.1 µM

**Q.** What about the TGI of the same molecule?
**A.** > 100 µM

**Q.** What does the source list for `Nc1c(C(=O)c2cccc(OCCN3CCOCC3)c2)cnn1-c1ccc(F)cc1`?
**A.** GI50: > 25 µM; TGI: > 25 µM

**Q.** `Cn1ccc(=Nc2ccc(NC(=O)c3ccc(N=c4ccn(C)c5ccc([N+](=O)[O-])cc45)cc3)cc2)cc1` was tested. Which GI50 did it give?
**A.** 7.28 µM

**Q.** And the TGI?
**A.** > 100 µM

**Q.** What does the source list for `Cc1ccc(N=C2CSc3nnc(-c4csc5c4CCCC5)n3N2)cc1`?
**A.** GI50: 0.142 µM; TGI: > 50 µM

**Q.** What does the source list for `COc1ccc(C2NCCc3c2[nH]c2ccccc32)cc1CN1CCN(c2ccc(F)cc2)CC1` (stereo not given)?
**A.** GI50: 1.67 µM; TGI: 3.36 µM

**Q.** For `CN1CCN(CC(=O)Nc2ccc3ncnc(Nc4ccc(Oc5cccc(C(F)(F)F)c5)c(Cl)c4)c3c2)CC1`, which GI50 is on record?
**A.** 1.16 µM

**Q.** And the TGI?
**A.** 2.66 µM

**Q.** `CCOC(=O)/C=C1\SC(=Nc2ccc(C#N)cc2)N(CCN2C(=O)/C(=C/C(=O)OCC)SC2=Nc2ccc(C#N)cc2)C1=O` was tested. Which GI50 did it give?
**A.** 3.1 µM

**Q.** And the TGI?
**A.** 17.4 µM

**Q.** How did the GI50 turn out when `CC[N+](CC)=c1ccc2nc3c(cc(NCc4ccccc4)c4ccccc43)oc-2c1` was run?
**A.** 0.134 µM

**Q.** And the TGI?
**A.** 1.07 µM

**Q.** With `Nc1nc2ccc([C@@H]3Nc4ccc5[nH]ncc5c4[C@H]4[C@H]5CCC(C5)[C@H]43)cc2s1` as the molecule, how does the GI50 read?
**A.** 0.403 µM

**Q.** What about the TGI of the same molecule?
**A.** 2.53 µM

**Q.** How did the GI50 turn out when `COC(=O)[C@]12CC[C@@H](C)[C@H](C)[C@@H]1C1=CC[C@@H]3[C@@]4(C)C(C=O)=C[C@@](C)(COC(C)=O)[C@@H]4[C@H](O)C[C@@]3(C)[C@]1(C)CC2` was run?
**A.** 2.04 µM

**Q.** And the TGI?
**A.** 4.4 µM

**Q.** How did the GI50 turn out when `COC(=O)c1ccc(=O)c2nc3/c(=C/O)c(O)cc(=O)c3[nH]c12` was run?
**A.** 0.937 µM

**Q.** And the TGI?
**A.** 48.5 µM

**Q.** `C=C1C(=O)O[C@H]2[C@H]1CC/C(COC(=O)C(=O)c1c[nH]c3ccc(OC)cc13)=C\CC[C@@]1(C)O[C@@H]21` was tested. Which GI50 did it give?
**A.** 2.17 µM

**Q.** And the TGI?
**A.** 4.77 µM

**Q.** What does the source list for `CN1CCN(c2ccc(-c3cnc4c(-c5csc6ccccc56)cnn4c3)cc2)CC1`?
**A.** GI50: > 15 µM; TGI: > 15 µM

**Q.** With `O=C(Nc1cnn2ccc(N3CCC[C@@H]3c3cc(F)ccc3F)nc12)N1CC[C@H](O)C1` as the molecule, how does the GI50 read?
**A.** > 100 µM

**Q.** What about the TGI of the same molecule?
**A.** > 100 µM

**Q.** How did the GI50 turn out when `COC(=O)c1c2c(c(C)[n+]([O-])c1C)C(=O)C=C(NCc1cccc(OC)c1)C2=O` was run?
**A.** 0.257 µM

**Q.** What about the TGI of the same molecule?
**A.** 0.797 µM

**Q.** How did the GI50 turn out when `COc1ccc(/C=C(/C(=O)N2CCCC2)c2cc(OC)c(OC)c(OC)c2)cc1N` was run?
**A.** 1.28 µM

**Q.** What about the TGI of the same molecule?
**A.** > 100 µM

**Q.** What does the source list for `COc1ncc(-c2nc3c(n2C(C)C)[C@H](c2ccc(Cl)cc2)N(c2cc(Cl)cn(C)c2=O)C3=O)c(OC)n1`?
**A.** GI50: 18.2 µM; TGI: 71.4 µM

**Q.** Which results are given for `O=C1/C(=C/c2ccccc2)SC(=Nc2ccccc2)N1Nc1ccccc1`?
**A.** GI50: 14 µM; TGI: > 100 µM

**Q.** How did the GI50 turn out when `COc1cc(NN=C(c2ccc(O)cc2)c2ccc(O)cc2)c([N+](=O)[O-])cc1[N+](=O)[O-]` was run?
**A.** 12.5 µM

**Q.** What about the TGI of the same molecule?
**A.** 25 µM

**Q.** How did the GI50 turn out when `CCCCCCCCOc1ccc(/C=N/Nc2cc(C)nc3ccc(Cl)cc23)cc1` was run?
**A.** 1.79 µM

**Q.** What about the TGI of the same molecule?
**A.** 3.42 µM

**Q.** With `CN(C)CCNC(=O)c1cccc2cc3ccccc3nc12` as the molecule, how does the GI50 read?
**A.** 1.26 µM

**Q.** What about the TGI of the same molecule?
**A.** 4.21 µM

**Q.** `Cc1ccc(S(=O)(=O)Oc2ccc3c4c(c(=O)oc3c2)CCCCC4)cc1` was tested. Which GI50 did it give?
**A.** 2.77 µM

**Q.** What about the TGI of the same molecule?
**A.** > 100 µM

**Q.** With `N#C/C(=C\c1ccc(Br)cc1)n1nnc2cccc(F)c21` as the molecule, how does the GI50 read?
**A.** 0.327 µM

**Q.** And the TGI?
**A.** 1.15 µM

**Q.** Which GI50 does the source give for `Nc1ccn([C@H]2C[C@@H](O)[C@@H](CO)S2)c(=O)n1` here?
**A.** > 100 µM

**Q.** What about the TGI of the same molecule?
**A.** > 100 µM

**Q.** Which results are given for `COc1ccc(-c2cnc(-c3ccc(F)cc3)[nH]2)cc1`?
**A.** GI50: 2.22 µM; TGI: 7 µM

**Q.** For `CCNC(=O)Oc1ccc(/C(=C(/C)c2ccc(Cl)cc2)c2ccc(OCCN3CCCCCC3)cc2)cc1`, which GI50 is on record?
**A.** 1.44 µM

**Q.** And the TGI?
**A.** 3.07 µM

**Q.** For `Nc1ccc(C#Cc2cncnc2Nc2ccc(OCc3cccc(F)c3)c(Cl)c2)cc1`, which GI50 is on record?
**A.** 1.15 µM

**Q.** What about the TGI of the same molecule?
**A.** 9.24 µM

**Q.** What does the source list for `CC(CN)[C@@H]1CC[C@]2(CO)CC[C@]3(C)[C@H](CC[C@@H]4[C@@]5(C)CCC(NCCO)C(C)(C)[C@@H]5CC[C@]43C)[C@@H]12` (stereo not given in full)?
**A.** GI50: 1.48 µM; TGI: 3.08 µM
